# Laboratory results reported in patent publication US20240002379A1, “ASYMMETRIC CONJUGATE COMPOUNDS” (Pheon Therapeutics Ltd., priority 2016, published 2024).
# Assays:
# [1] = test system: linear double-stranded 32P-end-labelled TyrT DNA fragment; assay: DNA interstrand cross-linking assay, denaturing polyacrylamide gel; assay type: biochemical; conditions: overnight incubation at 37° C., 10 concentrations tested, assay repeated twice
# Protocol: The ability of 13 to cross-link DNA was determined using an assay involving a linear double-stranded TyrT fragment (FIG. 8).
# Following denaturation conditions (treatment with formamide and heating at 65° C. for 5 min) the DNA strands were completely separated (see controls C2 and C4, FIG. 9). The presence of an interstrand cross-link holds the denatured strands in close proximity, and cross-linked adducts therefore run as double-stranded DNA on polyacrylamide gel.
# The preparation of the TyrT DNA fragment (FIG. 8) and HexARev DNA fragment (FIG. 15) have been previously described (34). Briefly, the sequence which had been cloned into the BamHI site of pUC18 was obtained by cutting with HindIII and EcoRI. Radiolabelled DNA fragments were prepared by filling in the 3′-end of the HindIII site with [α-^32P]dATP using Klenow DNA polymerase (exo-).
# The radiolabelled DNA fragment was separated from the remainder of the plasmid DNA on a 6% non-denaturing polyacrylamide gel. The gel (20 cm long, 0.3 mm thick) was run at 400 V in 1×TBE running buffer for about 1-2 h, until the bromophenol blue had run most of the way down the gel. The glass plates were separated and the position of the labelled DNA fragment was established by short (1 min) exposure to an X-ray film. […]
# [2] = test system: fluorescently labelled DNA duplex 5′-[…]-3′; assay: FRET DNA melting, FIG. 13 top duplex (interstrand); assay type: binding
# Excerpt: FRET DNA melting studies were undertaken on 13 using two fluorescently labelled sequences. The sequences (FIG. 13) were designed to provide additional evidence that 13 can form inter- and intrastrand cross-links. Inosines were inserted in place of traditional DNA bases to limit the number of binding sites available for 13 to interact with.
# Oligonucleotides were obtained from ATDbio (Southampton, UK) in lyophilised form. They were labelled with a fluorophore molecule (F=fluorescein) at the 5′-end and a quencher molecule (Q=dabcyl) at the 3′-end of the complementary strand. Each oligonucleotide was dissolved in distilled H2O to form stock solutions of 100 PM. Working solutions of 5 μM were prepared by diluting the stock solution with distilled H2O. […]
# The reaction mixture was comprised of 4 μL of 250 mM phosphate buffer (final concentration of 50 mM), 4 μL flourophor and 4 μL quencher molecule of the appropriate oligonucleotide for a final concentration of 0.2 PM, 4 μL 5 M sodium chloride (final concentration of 1 M NaCl), and 4 μL of distilled H2O. […] This mixture was analysed without prior annealing.
# Fluorescence melting profiles were measured using a Roche LightCycler using a total reaction volume of 20 μL. […] Annealing steps and melting steps were all recorded and changes in fluorescence were measured at 520 nm. […]
smiles,measurement,setting,value
"COc1cc2c(cc1OCCCC(=O)N1C[C@@H](CCl)c3c1cc(O)c1ccccc31)N=C[C@@H]1CCCCN1C2=O [Compound 13, (S)-3-(4-((S)-1-(Chloromethyl)-5-hydroxy-1,2-dihydro-3H-benzo[e]indol-3-yl)-4-oxobutoxy)-2-methoxy-7,8,9,10-tetrahydrobenzo[e]-pyrido[1,2-a][1,4]diazepin-12(6aH)-one]",lowest concentration at which DNA cross-links are visible,[1],10 nM
same,change of melting temperature with compound concentration,[2]; FIG. 14 top panel,increases significantly
same,Tm value,"[2]; duplex alone melts below 30° C., suggests interstrand cross-link",~65 °C
